Consider 5 compounds from patent US11045471B2, “Melanin production inhibitor, whitening agent, fibroblast activator, collagen and/or elastin production promotor and wrinkle ameliorant” (SHOWA DENKO K.K., priority 2016, dated 2021).

Data set [1] has as its system human three-dimensional skin equivalent. The data set is described as follows: Cell survival rate in human three-dimensional skin equivalent (Cell Count Reagent SF). The class given is cell-based. As to conditions: for Cell Survival Rate (Relative Value): 15 days culture, control (PBS) = 1. As to the method: (§1) The effect of inhibiting melanin production in human three-dimensional skin was examined. Human three-dimensional skin equivalent manufactured by MatTek Corp. was purchased and pre-cultured for 1 hour with the dedicated culture medium, EPI-100LLMM, available from the same manufacturer.
(§2) Following pre-culturing, orotic acid-glutamic acid dissolved in phosphate-buffered saline (PBS) was added to the skin surface at a final concentration of 0.2% (w/v), 0.5% (w/v) or 1.0% (w/v), or orotic acid was added to the skin surface at a final concentration of 0.5% (w/v), followed by culturing for 15 days. The cell survival rates of the human three-dimensional skin equivalent following addition of orotic acid or orotic acid-glutamic acid were measured using the Cell Count Reagent SF manufactured by Nacalai-Tesque, Inc. After culturing, the skin was transferred to medium containing 1% Cell Count Reagent SF and after culturing for 3 hours, absorbance was measured at […]. Cell survival rates were calculated as the measured value based on a value of 1 for the control.

Data set [2] deals with Normal human fibroblasts (NB1RGB cells). The data set is described as follows: Elastin production in normal human fibroblasts (elastin assay kit). In kind it is cell-based. The following applies: 48 hours, control = 1.00. On the procedure: Normal human fibroblasts in the form of NB1RGB cells (purchased from the Bioresource Center of Riken Japan) were seeded at a seeding density of about 10,000 cells/cm^2 and cultured for 24 hours in DMEM medium containing 10% (w/v) fetal calf serum. An orotic acid derivative according to the present invention dissolved in pure water to a final concentration of 0 μM (control), 0.1 μM, 1 μM, 10 μM or 100 μM or orotic acid dissolved in purified water to a final concentration of 100 μM was added to DMEM medium containing 10% (w/v) fetal calf serum followed by culturing for 48 hours. The cells were subsequently recovered, the elastin was extracted with an elastin assay kit manufactured by Biocolor Ltd., and absorbance of the extract was measured at a wavelength of 513 nm.

Data set [3] in a line: Effect of pH on water solubility (saturated concentration by HPLC).
Experimental: (§3) Subsequently, the pH of the remaining sample solution was adjusted using 1.0 N or 0.05 N aqueous sodium hydroxide solution, and in the case all of the sample had dissolved in the solution, sample was further added followed by stirring for 15 hours at room temperature (22° C.±2° C.) so that some of the sample was left undissolved and 1 mL of supernatant was similarly collected. Supernatant was repeatedly collected while adjusting the pH as necessary to obtain samples.
(§4) The resulting samples were filtered with a membrane filter having a pore size of 22 μm followed by subjecting the resulting filtrate to high-performance liquid chromatography (HPLC).
(§5) HPLC analyses were carried out using the LC Solution and PDA detector (CBM-20A) manufactured by Shimadzu Corp. and the Shodex RSpak DM-614 column at a column temperature of 40° C. and flow rate of 0.8 ml/min while using 0.02% H3PO4 for the mobile phase.
(§6) The concentration of each sample dissolved in solution was calculated from the area of the peak that coincided with each sample in the resulting analysis data.
The subject of data set [4] is aged fibroblasts (NB1RGB cells). Kind of data set: Collagen production in aged human fibroblasts (human collagen type I ELISA). In kind it is cell-based. The following applies: 100 μM, 24 hours, culture supernatant; control = 1.00. On the procedure: Aged fibroblasts were prepared. Normal human fibroblasts in the form of NB1RGB cells (purchased from the Bioresource Center of Riken Japan) were cultured to confluence in a culture flask, and after culturing for 1 hour in Dulbecco's Modified Eagle Medium (DMEM) manufactured by Sigma Corp. containing 600 μM aqueous hydrogen peroxide and 10% (w/v) fetal calf serum, the cells were washed with PBS and cultured for 24 hours after changing the medium to DMEM containing 10% (w/v) fetal calf serum. This procedure was repeated three times to obtain aged fibroblasts.
The resulting aged fibroblasts were seeded into a plastic Petri dish at a seeding density of about 10,000 cells/cm^2 and then cultured for 24 hours in Dulbecco's Modified Eagle Medium (DMEM) manufactured by Sigma Corp. containing 10% (w/v) fetal calf serum. Subsequently, orotic acid or an orotic acid derivative dissolved in purified water (Table 4) was added to the medium at a final concentration of 100 μmol/L followed by additionally culturing for 24 hours. The medium to which orotic acid or orotic acid derivative had not been added was used as a control.
The culture supernatant was recovered after culturing and collagen production was measured using a human collagen type I ELISA kit manufactured by Acel, Inc. 50 μL of culture supernatant of each sample were added to a microplate treated with collagen antibody provided with the kit. After shake culturing for 1 hour at room temperature, the plate was washed three times with the washing solution provided with the kit. 50 μL of horseradish peroxidase-avidin reagent provided with the kit were added thereto followed by shake culturing for 1 hour at room temperature. After again washing three times with the washing solution, 50 μL of the coloring solution provided with the kit were added followed by allowing to stand undisturbed for 15 minutes at room temperature and adding 50 μL aliquots of reaction stopping solution thereto. After mixing by shaking for 1 minute, absorbance was measured at 450 nm.
(In general: An ELISA detects its analyte on a solid surface through an enzyme-linked reagent.)

For data set [5] the following is noted: cited from earlier work.
Data set [6] deals with human three-dimensional skin equivalent. Kind of data set: Melanin production inhibition in human three-dimensional skin equivalent. The class given is cell-based. The following applies: for Melanin Production Rate (relative value): 15 days culture, per cell, control (PBS) = 1. As to the method:
as §1, §2
After measuring cell survival rates in Experimental Example 2, the skin was thoroughly rinsed with PBS followed by sampling the skin and recovering in a 1.5 mL microtube. 150 μL of a dissolving solution containing sodium dodecyl sulfate (1% (w/v)), 0.05 mM ethylenediaminetetraacetate and 10 mM Tris-HCl (pH 6.8) were added thereto. After stirring, 3 μL of 5 mg/mL protease K were added followed by dissolving for 6 hours at 45° C., adding 25 μL of 500 mM […] and 5 μL of 30% aqueous hydrogen peroxide and further treating for 30 minutes at 80° C. After allowing the sample to cool to room temperature, 20 μL of a 2:1 solution of chloroform and methanol were added to the sample followed by centrifuging for 10 minutes at the highest rotating speed of the centrifuge. 80 μL aliquots of the sample supernatant were recovered onto microplates followed by measurement of absorbance at 405 nm. Melanin production rate was determined by calculating the extinction coefficient of each sample based on a value of 1 for the control and dividing that value by the cell survival rate determined in Example 2 to calculate the melanin production rate per cell.

A short description of data set [7]: physchem. As to conditions: 22 °C, thermodynamic from solid.
Experimental: as §3, §4, §5, §6
Where [8] appears, read: 22 °C, pH 2.3, water, thermodynamic from solid.
Setting [9] is: 22 °C, pH 4, aqueous buffer, thermodynamic from solid.

SMILES strings stand for the structures. In brackets after ≈: the same amount, converted by molar mass.

For `O=C(O)c1cc(=O)[nH]c(=O)[nH]1` [Orotic acid, reference compound], the “Cell Survival Rate (Relative Value)” value in data set [1] (0.5% (w/v) on skin surface) is 1.1. For the same compound, the “Elastin Production (relative value)” value in data set [2] (100 μM) is 1.12. For the same compound, the Saturated concentration in data set [3] (pH 2.3, room temperature (22° C.±2° C.)) is recorded as 0.08 % (w/v); in data set [3] (pH 4.6, room temperature (22° C.±2° C.)), 0.27 % (w/v); in data set [3] (pH 4.8, room temperature (22° C.±2° C.)), 0.26 % (w/v); in data set [3] (pH 5.8, room temperature (22° C.±2° C.)) it was 0.19 % (w/v); in data set [3] (pH 7.1, room temperature (22° C.±2° C.)) it was 0.16 % (w/v). Besides, the “Collagen Production (relative value)” value in data set [4] was 1.14. For the same compound, the Solubility in alcohol result in data set [5] (alcohol such as ethanol) is “practically insoluble”. The Solubility in water result in data set [5] (water) is “extremely insoluble”. Further, the “Melanin Production Rate (relative value)” value in data set [6] (0.5% (w/v)) turned out to be 0.70. Also, the “Effect of inhibiting melanin production, statement in words” value in data set [6] (human three-dimensional skin equivalent) was “superior effect of inhibiting melanin production”.
By thermodynamic solubility is commonly meant solubility found after equilibrating the solid with the medium. In general, solubility refers to how much of the substance goes into solution per volume. Read a low solubility as little dissolved substance. Regarding `O=C(O)C[C@H](NC(=O)c1cc(=O)[nH]c(=O)[nH]1)C(=O)O` [Orotic acid-Asp], the solubility (thermodynamic) at 15 h came to 9.5 mg/mL (≈ 35 mM) in data set [3] (setting [8]) and 98.2 mg/mL (≈ 362 mM) in data set [3] (setting [9]). For the same compound, in data set [3] (22 °C, pH 4.2, aqueous buffer, thermodynamic from solid), the solubility at 15 h was above 111 mg/mL.
Regarding `O=C(O)CC[C@H](NC(=O)c1cc(=O)[nH]c(=O)[nH]1)C(=O)O` [Orotic acid-Glu], the “Cell Survival Rate (Relative Value)” value in data set [1] (0.2% (w/v) on skin surface) came to 1.4; in data set [1] (0.5% (w/v) on skin surface), 1.2; in data set [1] (1% (w/v) on skin surface), 0.9. For the same compound, the “Cell survival rate, statement in words” value in data set [1] (at the test concentrations 0.2%, 0.5%, 1.0% (w/v)) is listed as “no decreases in cell survival rates observed”. Also, the “Elastin Production (relative value)” value was 1.20 in data set [2] (0.1 μM), 1.35 in data set [2] (1 μM), 1.24 in data set [2] (10 μM) and 1.24 in data set [2] (100 μM). For the same compound, the solubility (thermodynamic) at 15 h in data set [3] (setting [8]) turned out to be 13 mg/mL (≈ 45.6 mM); in data set [3] (22 °C, pH 5.2, aqueous buffer, thermodynamic from solid), 54.3 mg/mL (≈ 190 mM). In data set [4], the “Collagen Production (relative value)” value was 1.53. Besides, the “Melanin Production Rate (relative value)” value in data set [6] (0.2% (w/v)) is reported as 0.61; in data set [6] (0.5% (w/v)) it was 0.71; in data set [6] (1% (w/v)) it was 0.50.
On to `O=C(O)CNC(=O)c1cc(=O)[nH]c(=O)[nH]1` [Orotic acid-Gly], for which the thermodynamic solubility at 15 h in data set [3] (22 °C, pH 2.8, aqueous buffer, thermodynamic from solid) was found to be 1.1 mg/mL (≈ 5.16 mM); in data set [3] (22 °C, pH 3.6, aqueous buffer, thermodynamic from solid) it was 3.2 mg/mL (≈ 15 mM); in data set [3] (setting [9]), 5.5 mg/mL (≈ 25.8 mM); in data set [3] (22 °C, pH 4.5, aqueous buffer, thermodynamic from solid), 16.6 mg/mL (≈ 77.9 mM); in data set [3] (22 °C, pH 5.1, aqueous buffer, thermodynamic from solid) it was 38.3 mg/mL (≈ 180 mM); in data set [3] (22 °C, pH 6.1, aqueous buffer, thermodynamic from solid), 66 mg/mL (≈ 310 mM). Further, the “Collagen Production (relative value)” value in data set [4] turned out to be 1.23.
For the compound `O=C(N[C@@H](Cc1c[nH]cn1)C(=O)O)c1cc(=O)[nH]c(=O)[nH]1` [Orotic acid-His], the “Collagen Production (relative value)” value in data set [4] is 1.23. The solubility (thermodynamic) at 15 h in data set [7] (pH 4.9, aqueous buffer) worked out at 2.2 mg/mL (≈ 7.5 mM); in data set [7] (pH 7.2, aqueous buffer), 12.5 mg/mL (≈ 42.6 mM).
